{"source": "patent US9133262B2", "about": "“Somatostatin antagonists” (Ipsen Pharma S.A.S., priority 1996, dated 2015)", "note": "Positions of bridges follow the written chain, without caps; N, C: chain ends. Non-standard residues stand in square brackets, D forms with d. Residues, ends and D or L forms follow the SMILES beside them. Phe(F5) = N[C@@H](Cc1c(F)c(F)c(F)c(F)c1F)C(=O)O; dDip = N[C@@H](C(=O)O)C(c1ccccc1)c1ccccc1; dPhe(4-Cl) = N[C@H](Cc1ccc(Cl)cc1)C(=O)O; Dip = N[C@H](C(=O)O)C(c1ccccc1)c1ccccc1; Phe(4-F) = N[C@@H](Cc1ccc(F)cc1)C(=O)O; dPhe(4-F) = N[C@H](Cc1ccc(F)cc1)C(=O)O; 2Nal = N[C@@H](Cc1ccc2ccccc2c1)C(=O)O; d2Nal = N[C@H](Cc1ccc2ccccc2c1)C(=O)O; 2Pal = N[C@@H](Cc1ccccn1)C(=O)O; 3Pal = N[C@@H](Cc1cccnc1)C(=O)O; Tle = CC(C)(C)[C@H](N)C(=O)O; Nle = CCCC[C@H](N)C(=O)O"}
{"system": "rat pituitary cells", "type": "cell-based", "conditions": "3 h", "source_text": "(§1) Bioassay on the In Vitro Release of Growth Hormone\n(§2) (a) Rat Pituitary Cell Dispersion\n(§3) Pituitaries from adult Charles River CD male rats (Wilmington, Mass.) housed under controlled conditions were dispersed and cultured using aseptic technique by modification of previously described methods (Hoefer, M. T., et al., Mol. Cell. Endocrinol. 35:229 (1984); Ben-Jonathan, N., et al., Methods Enzymol. 103:249 (1983); and Heiman, M. L., et al., Endocrinology 116:410 (1985)). Pituitaries were removed from sacrificed rats, sectioned, and then placed into a siliconized, liquid scintillation vial containing 2 ml 0.2% trypsin (Worthington Biochemicals, Freehold, N.J.) in sterile-filtered Krebs-Ringer bicarbonate buffer supplemented with 1% bovine serum albumin, 14 mM glucose, modified Eagle medium (MEM) vitamin solution, and MEM amino acids (Gibco Laboratories, Grand Island, N.Y.) (KRBGA). All glassware was siliconized as described by Sayers, et al., Endocrinology 88:1063 (1971). The fragments were incubated in a water bath for 35 min at 37° C. with agitation. The vial contents then were poured into a scintillation vial containing 2 ml 0.1% DNase (Sigma Chemical Co., St. Louis, Mo.) in KRBGA and incubated for 2 min at 37° C. with agitation. After incubation, the tissue was decanted into a 15 ml centrifuge tube and allowed to settle. Medium was discarded, and pituitary sections were washed 3 times with 1 ml fresh-KRBGA. The cells were then dispersed in 2 ml 0.05% LBI (lima bean trypsin inhibitor, Worthington Biochemicals) by gently drawing the fragments into and expelling them out of a siliconized, fire polished Pasteur pipette. Dispersed cells were then filtered through a 630 μm diameter Nylon mesh (Tetko, Elmsford, N.Y.) into a fresh 15 ml centrifuge tube. An additional 2 ml of 0.05% LBI solution was used to rinse the first tube and was transferred to the second tube with filtering.\n(§4) The dispersed cells were then further diluted with approximately 15 ml sterile-filtered Dulbecco's modified Eagle medium (GIBCO), which was supplemented with 2.5% fetal calf serum (GIBCO), 3% horse serum (GIBCO), 10% fresh rat serum (stored on ice for no longer than 1 hr) from the pituitary donors, 1% MEM non-essential amino acids (GIBCO), and gentamycin (10 ng/ml; Sigma) and nystatin (10,000 U/ml; GIBCO). The cells were poured into a 50 ml round-bottomed glass extraction flask with a large diameter opening and then randomly plated at a density of approximately 200,000 cells per well (Co-star cluster 24; Rochester Scientific Co., Rochester, N.Y.). The plated cells were maintained in the above Dulbecco's medium in a humidified atmosphere of 95% air and 5% CO2 at 37° C. for 4-5 days.\n(§5) (c) Experimental Incubation and IC50 Determination\n(§6) In preparation for a hormone challenge, the cells were washed 3 times with medium 199 (GIBCO) to remove old medium and floating cells. Each treatment well contained a total volume of 1 ml medium 199 containing 1% BSA (fraction V; Sigma) with treatments as described below. Each antagonist candidate was tested using a single 24-well cell culture plate. Each treatment was performed in triplicate. Each plate contained 8 treatment groups: one 1 nM growth hormone releasing factor (GRF) (1-29)NH2-stimulated control group; one 1 nM somatostatin-inhibited control group in the presence of 1 nM GRF(1-29)NH2; and 6 doses of a given antagonist in the presence of both 1 nM SRIF and 1 nM GRF per plate. After 3 hrs at 37° C. in a air/carbon dioxide atmosphere (95/5%), the medium was removed and stored at −20° C. until radioimmunoassayed for growth hormone content. IC50's of each antagonist versus 1 nM SRIF were calculated using a computer program (SigmaPlot, Jandel Scientific, San Rafael, Calif.) with the maximum response constrained to the value of the 1 nM GRF(1-29)NH2-stimulated control.", "units": {"IC50": "nM"}}
{"smiles": "CC(C)[C@@H]1NC(=O)[C@H](CCCCN)NC(=O)[C@@H](Cc2c[nH]c3ccccc23)NC(=O)[C@H](Cc2cccnc2)NC(=O)[C@H](NC(=O)[C@@H](N)Cc2c(F)c(F)c(F)c(F)c2F)CSSC[C@@H](C(=O)N[C@@H](Cc2c(F)c(F)c(F)c(F)c2F)C(N)=O)NC1=O", "note": "[Analog No. 16, H2—F5-Phe-D-Cys-Pal-D-Trp-Lys-Val-Cys-F5-Phe-NH2] (H-[Phe(F5)][dC][3Pal][dW]KVC[Phe(F5)]-NH2; disulfide 2-7)", "IC50": 820}
{"smiles": "CC(C)[C@@H]1NC(=O)[C@H](CCCCN)NC(=O)[C@@H](Cc2c[nH]c3ccccc23)NC(=O)[C@H](Cc2ccccn2)NC(=O)[C@H](NC(=O)[C@@H](N)Cc2c(F)c(F)c(F)c(F)c2F)CSSC[C@@H](C(=O)N[C@@H](Cc2c(F)c(F)c(F)c(F)c2F)C(N)=O)NC1=O", "note": "[Analog No. 17, H2—F5-Phe-D-Cys-2-Pal-D-Trp-Lys-Val-Cys-F5-Phe-NH2] (H-[Phe(F5)][dC][2Pal][dW]KVC[Phe(F5)]-NH2; disulfide 2-7)", "IC50": 1000}
{"smiles": "CC(C)[C@@H]1NC(=O)[C@H](CCCCN)NC(=O)[C@@H](Cc2c[nH]c3ccccc23)NC(=O)[C@H](Cc2cccnc2)NC(=O)[C@H](NC(=O)[C@H](N)C(c2ccccc2)c2ccccc2)CSSC[C@@H](C(=O)N[C@@H](Cc2ccc3ccccc3c2)C(N)=O)NC1=O", "note": "[Analog No. 18, H2-D-Dip-D-Cys-Pal-D-Trp-Lys-Val-Cys-β-Nal-NH2] (H-[dDip][dC][3Pal][dW]KVC[2Nal]-NH2; disulfide 2-7)", "IC50": 380}
{"smiles": "CC(C)[C@@H]1NC(=O)[C@H](CCCCN)NC(=O)[C@@H](Cc2c[nH]c3ccccc23)NC(=O)[C@H](Cc2c[nH]cn2)NC(=O)[C@H](NC(=O)[C@@H](N)Cc2ccc3ccccc3c2)CSSC[C@@H](C(=O)N[C@@H](C(N)=O)C(c2ccccc2)c2ccccc2)NC1=O", "note": "[Analog No. 19, H2-β-Nal-D-Cys-His-D-Trp-Lys-Val-Cys-D-Dip-NH2] (H-[2Nal][dC]H[dW]KVC[dDip]-NH2; disulfide 2-7)", "IC50": 110}
{"smiles": "CC(C)[C@@H]1NC(=O)[C@H](CCCCN)NC(=O)[C@@H](Cc2c[nH]c3ccccc23)NC(=O)[C@H](Cc2c[nH]cn2)NC(=O)[C@H](NC(=O)[C@@H](N)C(c2ccccc2)c2ccccc2)CSSC[C@@H](C(=O)N[C@@H](Cc2ccc3ccccc3c2)C(N)=O)NC1=O", "note": "[Analog No. 20, H2-Dip-D-Cys-His-D-Trp-Lys-Val-Cys-β-Nal-NH2] (H-[Dip][dC]H[dW]KVC[2Nal]-NH2; disulfide 2-7)", "IC50": 120}
{"smiles": "CC(C)[C@@H]1NC(=O)[C@H](CCCCN)NC(=O)[C@@H](Cc2c[nH]c3ccccc23)NC(=O)[C@H](Cc2c[nH]cn2)NC(=O)[C@H](NC(=O)[C@@H](N)C(c2ccccc2)c2ccccc2)CSSC[C@@H](C(=O)N[C@H](C(N)=O)C(c2ccccc2)c2ccccc2)NC1=O", "note": "[Analog No. 21, H2-Dip-D-Cys-His-D-Trp-Lys-Val-Cys-Dip-NH2] (H-[Dip][dC]H[dW]KVC[Dip]-NH2; disulfide 2-7)", "IC50": 970}
{"smiles": "CC(C)[C@@H]1NC(=O)[C@H](CCCCN)NC(=O)[C@@H](Cc2c[nH]c3ccccc23)NC(=O)[C@H](Cc2c[nH]cn2)NC(=O)[C@H](NC(=O)[C@@H](N)Cc2ccc3ccccc3c2)CSSC[C@@H](C(=O)N[C@@H](Cc2ccc3ccccc3c2)C(N)=O)NC1=O", "note": "[Analog No. 22, H2-β-Nal-D-Cys-His-D-Trp-Lys-Val-Cys-β-Nal-NH2] (H-[2Nal][dC]H[dW]KVC[2Nal]-NH2; disulfide 2-7)", "IC50": 66}
{"smiles": "CC(C)[C@H](NC(=O)[C@H](CCCCN)NC(=O)[C@@H](Cc1c[nH]c2ccccc12)NC(=O)[C@H](Cc1ccc(O)cc1)NC(=O)[C@@H](Cc1ccc(Cl)cc1)NC(=O)[C@@H](N)Cc1ccc2ccccc2c1)C(=O)N[C@@H](Cc1ccccc1)C(=O)N[C@@H](Cc1ccc2ccccc2c1)C(N)=O", "note": "[Analog No. 23, H2-β-Nal-D-Cpa-Tyr-D-Trp-Lys-Val-Phe-β-Nal-NH2] (H-[2Nal][dPhe(4-Cl)]Y[dW]KVF[2Nal]-NH2)", "IC50": 910}
{"smiles": "CC(C)[C@@H]1NC(=O)[C@H](CCCCN)NC(=O)[C@@H](Cc2c[nH]c3ccccc23)NC(=O)[C@H](Cc2cccnc2)NC(=O)[C@H](NC(=O)[C@H](N)Cc2ccc(F)cc2)CSSC[C@@H](C(=O)N[C@H](Cc2ccc(F)cc2)C(N)=O)NC1=O", "note": "[Analog No. 27, H2-D-p-F-Phe-D-Cys-Pal-D-Trp-Lys-Val-Cys-D-p-F-Phe-NH2] (H-[dPhe(4-F)][dC][3Pal][dW]KVC[dPhe(4-F)]-NH2; disulfide 2-7)", "IC50": 41}
{"smiles": "CC(C)[C@@H]1NC(=O)[C@H](CCCCN)NC(=O)[C@@H](Cc2c[nH]c3ccccc23)NC(=O)[C@H](Cc2cccnc2)NC(=O)[C@H](NC(=O)[C@@H](N)Cc2ccc3ccccc3c2)CSSC[C@@H](C(=O)N[C@H](Cc2ccc(F)cc2)C(N)=O)NC1=O", "note": "[Analog No. 28, H2-β-Nal-D-Cys-Pal-D-Trp-Lys-Val-Cys-D-p-F-Phe-NH2] (H-[2Nal][dC][3Pal][dW]KVC[dPhe(4-F)]-NH2; disulfide 2-7)", "IC50": 100}
{"smiles": "CC(C)(C)[C@@H]1NC(=O)[C@H](CCCCN)NC(=O)[C@@H](Cc2c[nH]c3ccccc23)NC(=O)[C@H](Cc2cccnc2)NC(=O)[C@H](NC(=O)[C@@H](N)Cc2ccc3ccccc3c2)CSSC[C@@H](C(=O)N[C@@H](Cc2ccc3ccccc3c2)C(N)=O)NC1=O", "note": "[Analog No. 29, H2-β-Nal-D-Cys-Pal-D-Trp-Lys-Tle-Cys-β-Nal-NH2] (H-[2Nal][dC][3Pal][dW]K[Tle]C[2Nal]-NH2; disulfide 2-7)", "IC50": 8.4}
{"smiles": "CC(C)[C@@H]1NC(=O)[C@H](CCCCN)NC(=O)[C@@H](Cc2c[nH]c3ccccc23)NC(=O)[C@H](Cc2cccnc2)NC(=O)[C@H](NC(=O)[C@@H](N)Cc2ccc(F)cc2)CSSC[C@@H](C(=O)N[C@@H](Cc2ccc3ccccc3c2)C(N)=O)NC1=O", "note": "[Analog No. 30, H2-p-F-Phe-D-Cys-Pal-D-Trp-Lys-Val-Cys-β-Nal-NH2] (H-[Phe(4-F)][dC][3Pal][dW]KVC[2Nal]-NH2; disulfide 2-7)", "IC50": 6.5}
{"smiles": "CCCC[C@@H]1NC(=O)[C@H](CCCCN)NC(=O)[C@@H](Cc2c[nH]c3ccccc23)NC(=O)[C@H](Cc2cccnc2)NC(=O)[C@H](NC(=O)[C@@H](N)Cc2ccc3ccccc3c2)CSSC[C@@H](C(=O)N[C@@H](Cc2ccc3ccccc3c2)C(N)=O)NC1=O", "note": "[Analog No. 31, H2-β-Nal-D-Cys-Pal-D-Trp-Lys-Nle-Cys-β-Nal-NH2] (H-[2Nal][dC][3Pal][dW]K[Nle]C[2Nal]-NH2; disulfide 2-7)", "IC50": 3.8}
{"system": "rat pituitary cells", "type": "cell-based", "conditions": "cultured rat pituitary cells; 1 nM SRIF and 1 nM GRF(1-29)NH2; 3 hrs at 37° C.; growth hormone by radioimmunoassay; read-out: IC50 of antagonist versus 1 nM SRIF (growth hormone release)", "source_text": "as §1, §2, §3, §4, §5, §6", "units": {"IC50": "nM"}}
{"smiles": "CC(C)[C@@H]1NC(=O)[C@H](CCCCN)NC(=O)[C@@H](Cc2c[nH]c3ccccc23)NC(=O)[C@H](Cc2ccc(O)cc2)NC(=O)[C@H](NC(=O)[C@@H](N)Cc2c[nH]c3ccccc23)CSSC[C@@H](C(=O)N[C@H](Cc2ccc3ccccc3c2)C(N)=O)NC1=O", "note": "[Analog No. 24, H2-Trp-D-Cys-Tyr-D-Trp-Lys-Val-Cys-D-β-Nal-NH2] (H-W[dC]Y[dW]KVC[d2Nal]-NH2; disulfide 2-7)", "IC50": 68}
{"smiles": "CC(C)[C@@H]1NC(=O)[C@H](CCCCN)NC(=O)[C@@H](Cc2c[nH]c3ccccc23)NC(=O)[C@H](Cc2ccc(O)cc2)NC(=O)[C@H](NC(=O)[C@@H](N)Cc2ccc3ccccc3c2)CSSC[C@@H](C(=O)N[C@H](Cc2ccc3ccccc3c2)C(N)=O)NC1=O", "note": "[Analog No. 25, H2-β-Nal-D-Cys-Tyr-D-Trp-Lys-Val-Cys-D-β-Nal-NH2] (H-[2Nal][dC]Y[dW]KVC[d2Nal]-NH2; disulfide 2-7)", "IC50": 280}
{"smiles": "CC(C)[C@@H]1NC(=O)[C@H](CCCCN)NC(=O)[C@@H](Cc2c[nH]c3ccccc23)NC(=O)[C@H](Cc2ccc(O)cc2)NC(=O)[C@H](NC(=O)[C@H](N)Cc2ccc3ccccc3c2)CSSC[C@@H](C(=O)N[C@H](Cc2ccc3ccccc3c2)C(N)=O)NC1=O", "note": "[Analog No. 26, H2-D-β-Nal-D-Cys-Tyr-D-Trp-Lys-Val-Cys-D-β-Nal-NH2] (H-[d2Nal][dC]Y[dW]KVC[d2Nal]-NH2; disulfide 2-7)", "IC50": 380}
